In brackets after ≈: the same amount, converted by molar mass. Entries after “also recorded” stand apart in the source; their conditions may differ. Like-named read-outs stand apart in the source and are kept apart here. Marks after values point to notes of the source that are not given here.
How the values were obtained:
MRSA ATCC 43300 = assay: Antimicrobial susceptibility (MIC), MRSA; type: cell-based; settings: Staphylococcus aureus; MRSA ATCC 43300; mean (n = 2); read-out: MIC MRSA
Experimental: (§1) The susceptibility of bacterial strains S. aureus (ATCC 25923), E. coli (ATCC 25922) and P. aeruginosa (ATCC 27853) to antibiotics and compounds was determined according to previously reported protocols. Additional antimicrobial evaluation against MRSA (ATCC 43300) and C. albicans (ATCC 90028) was undertaken at the Community for Open Antimicrobial Drug Discovery at The University of Queensland (Australia) according to their standard protocols as reported previously.

human red blood cells = assay: Hemolytic assay; type: cell-based; settings: mean (n = 2)
Experimental: Hemolysis assays were conducted according to previously reported protocols.

E. coli ATCC 25922 [1] = system: E. coli ATCC 25922; set-up: method as in Cadelis et al. [16]; settings: ref Cadelis et al. [16]; cited from earlier work
S. aureus ATCC 25923 [2] = settings: S. aureus ATCC 25923; ref Cadelis et al. [16]; cited from earlier work
C. albicans ATCC 90028 [3] = system: C. albicans ATCC 90028; set-up: method as in Cadelis et al. [16]; settings: ref Cadelis et al. [16]; cited from earlier work
[4] = system: HEK293 (human embryonic kidney cells); settings: HEK293; ref Cadelis et al. [16]; read-out: Cyto. IC50 (concentration of compound at 50% cytotoxicity); cited from earlier work
P. aeruginosa ATCC 27853 [5] = system: P. aeruginosa ATCC 27853; set-up: method as in Cadelis et al. [16]; settings: ref Cadelis et al. [16]; cited from earlier work
P. aeruginosa ATCC 27853 [6] = settings: doxycycline at 2 µg/mL (4.5 µM), P. aeruginosa ATCC 27853; ref Cadelis et al. [16]; cited from earlier work
P. aeruginosa ATCC 27853 [7] = assay: Antibiotic potentiation (MIC of antibiotics in the presence of synergizing compounds), P. aeruginosa; type: cell-based, Pseudomonas aeruginosa; settings: for Conc (µM) for Potentiation of doxycycline: concentration required to restore doxycycline activity at 2 µg/mL (4.5 µM) against P. aeruginosa ATCC 27853
P. aeruginosa ATCC 27853 [8] = assay: Antimicrobial susceptibility (MIC), P. aeruginosa; type: cell-based; settings: Pseudomonas aeruginosa, ATCC27853, mean (n = 3), read-out: MIC P. a
Experimental: as §1

S. aureus ATCC 25923 [9] = assay: Antimicrobial susceptibility (MIC), S. aureus; type: cell-based, Staphylococcus aureus; settings: Staphylococcus aureus, ATCC25923; S. aureus ATCC 25923; mean (n = 3)
Experimental: as §1

E. coli ATCC 25922 [10] = assay: Antimicrobial susceptibility (MIC), E. coli; type: cell-based; settings: Escherichia coli, ATCC25922, mean (n = 3)
Experimental: as §1

C. albicans ATCC 90028 [11] = assay: Antifungal susceptibility (MIC), C. albicans; type: cell-based; settings: Candida albicans, ATCC90028, mean (n = 2)
Experimental: as §1

[12] = system: HEK293 (human embryonic kidney cells); assay: Cytotoxicity assay HEK293; type: cell-based; settings: mean (n = 2)
Experimental: (§2) Cytotoxicity assays were conducted according to previously reported protocols.

[13] = Cytotoxicity assay HEK293; type: cell-based, human; settings: human, HEK293 cells, mean (n = 2), read-out: Cyto. IC50 (concentration of compound at 50% cytotoxicity)
Experimental: as §2

[14] = system: Klebsiella pneumoniae ST258; assay: Antibiotic potentiation, K. pneumoniae; type: cell-based; settings: mean (n = 3)
Experimental: (§3) Antibiotic enhancing activities were determined according to previously reported protocols.

A. baumannii AYE = assay: Antibiotic potentiation, A. baumannii; type: cell-based, Acinetobacter baumannii; settings: mean (n = 3)
Experimental: as §3

E. coli ATCC 25922 [15] = assay: Antibiotic potentiation, E. coli; type: cell-based, Escherichia coli; settings: mean (n = 3)
Experimental: as §3

MIC (MRSA ATCC 43300) [µM] | MIC (P. aeruginosa ATCC 27853 [8]) [µM] | MIC (S. aureus ATCC 25923 [9]) [µM] | MIC (E. coli ATCC 25922 [10]) [µM] | MIC (C. albicans ATCC 90028 [11]) [µM] | Structure (SMILES) | Hem. HC10 (concentration of compound at 10% hemolytic activity) (human red blood cells) | MIC E. c (E. coli ATCC 25922 [1]) | MIC S. a (S. aureus ATCC 25923 [2]) | MIC C. a (C. albicans ATCC 90028 [3]) | IC50 [4] [µM] | MIC P. a (P. aeruginosa ATCC 27853 [5]) | Conc (µM) for Potentiation of doxycycline (P. aeruginosa ATCC 27853 [6]) | Conc (µM) for Potentiation of doxycycline (P. aeruginosa ATCC 27853 [7]) [µM] | IC50 [13] [µM] | further results
41.4 (≈ 22.5 µg/mL) | – | – | – | – | O=C(NCCCNCCCCNCCCNC(=O)C(=O)c1c[nH]c2ccccc12)C(=O)c1c[nH]c2ccccc12 [Compound 2] | >41 µM | >100 ^h µM | >100 ^h µM | >41.4 ^h µM | > 41 | >100 ^h µM | – | – | – | –
4.32 (≈ 3.03 µg/mL) | – | – | – | – | O=C(NCCCNCCCCNCCCNC(=O)C(=O)c1c[nH]c2ccc(Br)cc12)C(=O)c1c[nH]c2ccc(Br)cc12 [Compound 3] | >34 µM | 25 ^h µM | 3.125 ^h µM | >34.4 ^h µM | 14 | 50 ^h µM | 3.125 ^b µM | – | – | –
38.4 (≈ 23.2 µg/mL) | – | – | – | – | COc1ccc2[nH]cc(C(=O)C(=O)NCCCNCCCCNCCCNC(=O)C(=O)c3c[nH]c4ccc(OC)cc34)c2c1 [Compound 4] | >38 µM | >200 ^h µM | 100 ^h µM | >38.4 ^h µM | > 38 | >200 ^h µM | 12.5 ^b µM | – | – | –
20 (≈ 11.5 µg/mL) | – | – | – | – | Cc1ccc2[nH]cc(C(=O)C(=O)NCCCNCCCCNCCCNC(=O)C(=O)c3c[nH]c4ccc(C)cc34)c2c1 [Compound 5] | >40 µM | 200 ^h µM | 25 ^h µM | >40.0 ^h µM | > 40 | 100 ^h µM | 6.25 ^b µM | – | – | –
19.8 (≈ 11.5 µg/mL) | – | – | – | – | O=C(NCCCNCCCCNCCCNC(=O)C(=O)c1c[nH]c2c(F)cccc12)C(=O)c1c[nH]c2c(F)cccc12 [Compound 6] | >40 µM | 200 ^h µM | 25 ^h µM | >39.6 ^h µM | 19 | 200 ^h µM | 3.125 ^b µM | – | – | –
38.4 (≈ 23.2 µg/mL) | – | – | – | – | COc1cccc2c(C(=O)C(=O)NCCCNCCCCNCCCNC(=O)C(=O)c3c[nH]c4c(OC)cccc34)c[nH]c12 [Compound 7] | >38 µM | >200 ^h µM | 15 ^h µM | 38.4 ^h µM | 27 | >200 ^h µM | 3.75 ^b µM | – | – | –
20 (≈ 11.5 µg/mL) | – | – | – | – | Cc1cccc2c(C(=O)C(=O)NCCCNCCCCNCCCNC(=O)C(=O)c3c[nH]c4c(C)cccc34)c[nH]c12 [Compound 8] | >40 µM | >200 ^h µM | 25 ^h µM | >40.0 ^h µM | > 40 | >200 ^h µM | 6.25 ^b µM | – | – | –
> 37 | > 200 | 29 | > 200 | > 37 | COc1ccc2[nH]cc(C(=O)C(=O)NCCCNCCCCCCNCCCNC(=O)C(=O)c3c[nH]c4ccc(OC)cc34)c2c1.O=C(O)C(F)(F)F.O=C(O)C(F)(F)F [Compound 19a, N^1,N^6-Bis(3-(2-(5-methoxy-1H-indol-3-yl)-2-oxoacetamido)propyl)hexane-1,6-diaminium 2,2,2-trifluoroacetate] | – | – | – | – | – | – | – | 7.3 | > 37 | Concentration (µM) for Potentiation of chloramphenicol (P. aeruginosa ATCC 27853 [7]; P. aeruginosa ATCC 27853, chloramphenicol 2 µg/mL, mean (n = 3)): 58 µM; Concentration (µM) for Potentiation of minocycline (P. aeruginosa ATCC 27853 [7]; P. aeruginosa ATCC 27853, minocycline 2 µg/mL, mean (n = 3)): 14.5 µM; Concentration (µM) for Potentiation, no antibiotic (P. aeruginosa ATCC 27853 [7]; P. aeruginosa ATCC 27853, no antibiotic, mean (n = 3)): >200 µM; Cyto. IC50 (concentration of compound at 50% cytotoxicity) [12]: non-toxic
19.1 | 240 | 7.5 | 240 | > 38 | O=C(NCCCNCCCCCCNCCCNC(=O)C(=O)c1c[nH]c2c(F)cccc12)C(=O)c1c[nH]c2c(F)cccc12.O=C(O)C(F)(F)F.O=C(O)C(F)(F)F [Compound 21a, N^1,N^6-Bis(3-(2-(7-fluoro-1H-indol-3-yl)-2-oxoacetamido)propyl)hexane-1,6-diaminium 2,2,2-trifluoroacetate] | >38 ^e µM | – | – | – | – | – | – | – | 12 | Concentration (µM) for Potentiation of erythromycin (P. aeruginosa ATCC 27853 [7]; P. aeruginosa ATCC 27853, erythromycin 2 µg/mL, mean (n = 3)): 100 µM; Concentration (µM) for Potentiation of chloramphenicol ([14]; chloramphenicol 2 µg/mL): >200 µM; Concentration (µM) for Potentiation of doxycycline ([14]; doxycycline 2 µg/mL): 200 µM; Concentration (µM) for Potentiation of erythromycin ([14]; erythromycin 2 µg/mL): >200 µM; Concentration (µM) for Potentiation of nalidixic acid ([14]; nalidixic acid 2 µg/mL): >200 µM; Concentration (µM) for Potentiation of chloramphenicol (A. baumannii AYE; chloramphenicol 2 µg/mL): 200 µM; Concentration (µM) for Potentiation of doxycycline (A. baumannii AYE; doxycycline 2 µg/mL): 12.5 µM; Concentration (µM) for Potentiation of erythromycin (A. baumannii AYE; erythromycin 2 µg/mL): 100 µM; Concentration (µM) for Potentiation of nalidixic acid (A. baumannii AYE; nalidixic acid 2 µg/mL): 200 µM; Concentration (µM) for Potentiation, no antibiotic (A. baumannii AYE; no antibiotic): 100 µM; Concentration (µM) for Potentiation of chloramphenicol (E. coli ATCC 25922 [15]; chloramphenicol 2 µg/mL): >200 µM; Concentration (µM) for Potentiation of doxycycline (E. coli ATCC 25922 [15]; doxycycline 2 µg/mL): 1.56 µM; Concentration (µM) for Potentiation of erythromycin (E. coli ATCC 25922 [15]; erythromycin 2 µg/mL): 200 µM; Concentration (µM) for Potentiation of nalidixic acid (E. coli ATCC 25922 [15]; nalidixic acid 2 µg/mL): 200 µM
≤ 0.27 | 800 | 25 | 50 | 17 | COc1cccc2c(C(=O)C(=O)NCCCNCCCCCCCCCCNCCCNC(=O)C(=O)c3c[nH]c4c(OC)cccc34)c[nH]c12.O=C(O)C(F)(F)F.O=C(O)C(F)(F)F [Compound 22d, N^1,N^10-Bis(3-(2-(7-methoxy-1H-indol-3-yl)-2-oxoacetamido)propyl)decane-1,10-diaminium 2,2,2-trifluoroacetate] | 8.4 µM | – | – | – | – | – | – | 400 | > 35 | –
≤ 0.3 | > 240 | 30.2 | 60 | > 39 | Cc1cccc2c(C(=O)C(=O)NCCCNCCCCCCNCCCNC(=O)C(=O)c3c[nH]c4c(C)cccc34)c[nH]c12.O=C(O)C(F)(F)F.O=C(O)C(F)(F)F [Compound 23a, N^1,N^6-Bis(3-(2-(7-methyl-1H-indol-3-yl)-2-oxoacetamido)propyl)hexane-1,6-diaminium 2,2,2-trifluoroacetate] | >39 µM | – | – | – | – | – | – | 60 | > 39 | –
≤ 0.3 | > 240 | 14.8 | 120 | > 38 | Cc1cccc2c(C(=O)C(=O)NCCCNCCCCCCCNCCCNC(=O)C(=O)c3c[nH]c4c(C)cccc34)c[nH]c12.O=C(O)C(F)(F)F.O=C(O)C(F)(F)F [Compound 23b, N^1,N^7-Bis(3-(2-(7-methyl-1H-indol-3-yl)-2-oxoacetamido)propyl)heptane-1,7-diaminium 2,2,2-trifluoroacetate] | – | – | – | – | – | – | – | 240 | > 38 | Cyto. IC50 (concentration of compound at 50% cytotoxicity) [12]: non-cytotoxic; also recorded: no detectable cytotoxicity
≤ 0.27 | > 220 | 6.85 | 13.7 | ≤ 0.27 | Cc1cccc2c(C(=O)C(=O)NCCCNCCCCCCCCCCCCNCCCNC(=O)C(=O)c3c[nH]c4c(C)cccc34)c[nH]c12.O=C(O)C(F)(F)F.O=C(O)C(F)(F)F [Compound 23e, N^1,N^12-Bis(3-(2-(7-methyl-1H-indol-3-yl)-2-oxoacetamido)propyl)dodecane-1,12-diaminium 2,2,2-trifluoroacetate] | 8.4 µM | – | – | – | – | – | – | 220 | > 35 | –
